Results on one molecule are retold here after patent US11453667B2, “Pyridone-pyrimidine derivative acting as KRASG12C mutein inhibitor” (MEDSHINE DISCOVERY INC., priority 2018, dated 2022).

Where two headings read alike, the source gives them in different places.

The subject of data set [1] is pancreatic cancer MIA-Paca2 cell. The note with it: reported in Cell, 2018, 172, 578-589; cited from earlier work.
For data set [2], the system named is human non-small cell lung cancer NCI-H358. Put plainly: In vivo drug efficacy test (4): subcutaneous xenograft tumor model. On the set-up: species or system BALB/c nude mice. The note with it: 15 mg/kg. The protocol:
(§1) To evaluate the in vivo efficacy of the test compounds in a subcutaneous xenograft tumor model of human non-small cell lung cancer NCI-H358.
BALB/c nude mice, female, 6-8 weeks old, weighing 18-20 grams. A total of 40 were required. They were provided by Shanghai Lingchang Experimental Animal Co., Ltd ( ? ? ). NCI-H358 tumor cells were resuspended in PBS to prepare a cell suspension with a density of 5×10^7/mL, which was inoculated subcutaneously on the right back of each mouse (0.1 mL, 5×10^6/mouse) to wait for tumor growth. When the average tumor volume reached about 166 mm^3, randomized grouping and administration were performed, and the administration dose was shown in Table 8. The diameter of the tumor was measured with vernier calipers twice a week.
The formula for calculating the tumor volume is: V=0.5a×b^2, wherein a and b represent the long and short diameters of the tumor, respectively. The tumor suppressive effect of the compounds was evaluated by TGI (%). TGI (%) reflects the tumor growth inhibition rate. Calculation of TGI (%): TGI (%)=[(1−(average tumor volume at the end of administration in a treatment group−average tumor volume at the beginning of administration in the treatment group))/(average tumor volume at the end of treatment in the solvent control group−average tumor volume at the beginning of treatment in the solvent control group)]×100%.

The test system of the next data set is KRAS G12C mutation. The note with it: reported in Cell, 2018, 172, 578-589; cited from earlier work.
Data set [3] is described as follows: Rat pharmacokinetic evaluation experiment. Format: in vivo. The note with it: plasma, male SD rats; for AUC: read-out: AUC (exposure). An excerpt: To determine the drug concentrations in plasma at different times after intravenous and intragastric administration of the test compounds to the rats by using the LC/MS/MS method and using male SD rats as the test animals; To study the pharmacokinetic behaviors of the test compounds in rats and to evaluate the pharmacokinetic characteristics thereof.
Experiment scheme: 10 healthy adult male SD rats were used as experimental animals and divided into 4 groups according to the principle of similar body weight, with 2 in each group of the group IV (two groups) and 3 in each group of the group PO (two groups). The animals were purchased from Beijing Vital River Laboratory Animal Technology Co., Ltd.
Group IV: an appropriate amount of samples were weighed; an appropriate amount of DMSO, PEG400 and water were added successively thereto according to the volume ratio of 10:60:30; and stirring was performed under sonication to reach a clear state of 1.5 mg/mL.
Group PO: an appropriate amount of samples were weighed; an appropriate amount of DMSO, PEG400 and water were added successively thereto according to the volume ratio of 10:60:30; and stirring was performed under sonication to reach a clear state of 1.0 mg/mL.
After fasting overnight, each rat in the group IV was administered intravenously with a volume of 2 mL/kg and a dose of 3 mg/kg; each rat in the group PO was administered intragastrically with a volume of 10 mL/kg and a dose of 10 mg/kg.
After each of the male SD rats in the group IV was administrated with the test compounds, 200 ul of blood samples were collected at 0.0833, 0.25, 0.5, 1, 2, 4, 6, 8 and 24 hours, and were placed in a commercial anticoagulation tube pre-loaded with EDTA-K2. After each rat in the group PO was administrated with the test compounds, 200 ul of blood samples were collected at 0.25, 0.5, 1, 2, 4, 6, 8 and 24 hours respectively, and were placed in a commercial anticoagulation tube pre-loaded with EDTA-K2. The test tube was centrifuged for 15 minutes to separate the plasma and stored at −60° C. 2 hours after administration, the animals can be fed. The content of the test compounds in plasma was determined by the LC/MS/MS method after intravenous and intragastric administration to the rats. The linear range of the method was from 2.00 to 6000 nM; plasma samples were analyzed after treatment of precipitating proteins by acetonitrile.
Note: Cl: clearance rate; Vd: volume of distribution; AUC: exposure; T1/2: half-life; Cmax: maximum compound concentration after oral administration; Tmax: time to reach Cmax; F: bioavailability.

The subject of data set [4] is human non-small cell lung cancer NCI-H358. Description: In vivo drug efficacy test (2): subcutaneous xenograft tumor model. Also noted: species or system BALB/c nude mice. The note with it: 100 mg/kg (0-6 days) + 50 mg/kg (7-20 days). On the procedure: as §1
BALB/c nude mice, female, 6-8 weeks old, weighing 18-21 grams. A total of 100 were required. They were provided by Shanghai Lingchang Experimental Animal Co., Ltd ( ? ? ). NCI-H358 tumor cells were resuspended in PBS to prepare 0.1 mL (5×10^6) of cell suspension, which was inoculated subcutaneously on the right back of each mouse (5×10^6/mouse) to wait for tumor growth. When the average tumor volume reached about 150-200 mm^3, randomized grouping and administration were performed, and the administration dose was shown in Table 6. The diameter of the tumor was measured with vernier calipers twice a week. The formula for calculating the tumor volume is: V=0.5a×b^2, wherein a and b represent the long and short diameters of the tumor, respectively. The tumor suppressive effect of the compounds was evaluated by TGI (%). TGI (%) reflects the tumor growth inhibition rate. Calculation of TGI (%): TGI (%)=[(1−(average tumor volume at the end of administration in a treatment group−average tumor volume at the beginning of administration in the treatment group))/(average tumor volume at the end of treatment in the solvent control group−average tumor volume at the beginning of treatment in the solvent control group)]×100%.

For data set [5] the following is noted: reported in Cell, 2018, 172, 578-589; cited from earlier work.
Data set [6] deals with human pancreatic cancer x-MIA-PaCa2 cell. Description: In vivo drug efficacy test (3): subcutaneous xenograft tumor model. On the set-up: species or system NU/NU mice. The note with it: 50 mg/kg. On the procedure:
To evaluate the in vivo efficacy of the test compounds in a subcutaneous xenograft tumor model of human pancreatic cancer x-MIA-PaCa2 cell.
NU/NU mice, female, 6-8 weeks old, weighing 17-20 grams. A total of 100 were required (additional 30% of animals were inoculated). They were provided by Beijing Vital River Science and Technology Co., Ltd. Each mouse was subcutaneously inoculated with 0.2 mL (10×10^6) of x-MIA-PaCa2 cells (plus matrigel, with the volume ratio being 1:1) on the right back. When the average tumor volume reached about 150 mm^3, grouping and administration were performed, and the administration dose was shown in Table 7. The diameter of the tumor was measured with vernier calipers twice a week. The formula for calculating the tumor volume is: V=0.5a×b^2, wherein a and b represent the long and short diameters of the tumor, respectively. The tumor suppressive effect of the compounds was evaluated by TGI (%). TGI (%) reflects the tumor growth inhibition rate. Calculation of TGI (%): TGI (%)=[(1−(average tumor volume at the end of administration in a treatment group−average tumor volume at the beginning of administration in the treatment group))/(average tumor volume at the end of treatment in the solvent control group−average tumor volume at the beginning of treatment in the solvent control group)]×100%.

As to `C=CC(=O)N1CCN(c2ncnc3c(F)c(-c4c(O)cccc4F)c(Cl)cc23)CC1` [ARS-1620, reference compound], the “tumor growth in subcutaneous xenograft tumor model” value in data set [1] is reported as “effectively inhibit tumor growth”. Further, in data set [2], the “Tumor volume (day 27)” value is 492 mm^3. The tumour growth inhibition (TGI) was 51.78% in data set [2] (day 27), 90.82% in data set [4] (day 20) and 50.36% in data set [6] (day 14). Also, the “cellular anti-proliferative activity at the cellular level” value in the data set on KRAS G12C mutation was “nM-level”. The AUC in data set [3] (IV 3 mg/kg) is 3.21 µM·h; in data set [3] (PO 10 mg/kg), 2.32 µM·h. Further, the clearance in data set [3] (IV 3 mg/kg, read-out: Cl (clearance rate)) stood at 36.3 mL/min/kg. The half-life in data set [3] (IV 3 mg/kg, read-out: T1/2 (half-life) (converted)) was 27.7 min. In addition, in data set [3] (IV 3 mg/kg, read-out: Vd (volume of distribution)), the distribution volume (Vd) is 1.08 L/kg. Besides, the concentration in data set [3] (PO 10 mg/kg) peaked (Cmax) at 1240 nM. Also, the Tmax in data set [3] (PO 10 mg/kg) worked out at 20 min. For the same molecule, in data set [3] (PO 10 mg/kg, read-out: F (bioavailability)), the bioavailability was determined as 22%. Also, the “Tumor volume (day 20)” value in data set [4] came out at 216 mm^3. Further, the metabolic stability entry in data set [5] is listed as “good metabolic stability”. In addition, the “Tumor volume (day 14)” value in data set [6] worked out at 907 mm^3.
